Results as given in paper PMC9223764, “In Vitro Selection and Characterization of HIV-1 Variants with Increased Resistance to LP-40, Enfuvirtide-Based Lipopeptide Inhibitor” (International Journal of Molecular Sciences, 2022).
Where a SMILES comes first, the peptide text is derived from it. The star is where a group is joined. Palmitoyl = CCCCCCCCCCCCCCCC(=O)*

How the values were obtained:
Format in all cases: cell-based
[1] = tested on: HIV-1 NL4-3 gp41 NDQEEDYN pseudovirus; conditions: Table 3; for IC50: NDQEEDYN (E109N, N113D, E119Q, D121E, N125E, S129D, H132Y, S133N), TZM-bl cells, 48 h, luciferase, means, triplicate, repeated three times; for Fold change in IC50: NDQEEDYN relative to WT NL4-3
Experimental: (§1) We selected LP-40-induced drug resistance typical point mutations and combination mutation pseudoviruses to evaluate the current representative membrane fusion inhibitors.
(§2) The infectivity of HIV Env mutants and the inhibitory activities of membrane fusion inhibitors on mutants in TZM-bl cells were measured using a single-cycle infection assay as described previously. Briefly, the HIV pseudovirus was packed using an Env-coding plasmid, and pSG3ΔEnv was co-transfected into HEK293T cells. pSG3ΔEnv encodes an Env-defective, luciferase-expressing HIV-1 genome. After the pseudoviruses were harvested and filtrated, the amount of pseudoviruses was fixed via P24 antigen, and their infectivity was determined in TZM-bl cells. In order to measure the inhibitory activities of the inhibitors, inhibitors diluted serially 3-fold were mixed with an equal volume of pseudoviruses, and then 100 µL 1 × 10^5/mL TZM-bl cells were added to the mixture and incubated at 37 °C with 5% CO2 for 48 h. After that, TZM-bl cells were lysed using reporter lysis buffer, and IC50 values were calculated according to luciferase activity measured by luciferase assay reagents and a luminescence counter (Promega, Madison, WI, USA).

[2] = tested on: HIV-1 NL4-3 gp41 NDQEEDYN/L33S/I37T pseudovirus; conditions: Table 3; for Fold change in IC50: NDQEEDYN/L33S/I37T relative to WT NL4-3; for IC50: NDQEEDYN/L33S/I37T, TZM-bl cells, 48 h, luciferase, means, triplicate, repeated three times
Experimental: as §1, §2

[3] = tested on: HIV-1 NL4-3 gp41 L33S/V38A/N42T pseudovirus; conditions: Table 3; for Fold change in IC50: L33S/V38A/N42T relative to WT NL4-3; for IC50: L33S/V38A/N42T, TZM-bl cells, 48 h, luciferase, means, triplicate, repeated three times
Experimental: as §1, §2

[4] = tested on: HIV-1 NL4-3 gp41 V38A/N42T pseudovirus; conditions: Table 3; for Fold change in IC50: V38A/N42T relative to WT NL4-3; for IC50: V38A/N42T, TZM-bl cells, 48 h, luciferase, means, triplicate, repeated three times
Experimental: as §1, §2

[5] = tested on: HIV-1 NL4-3 gp41 L33S/I37T pseudovirus; conditions: Table 3; for Fold change in IC50: L33S/I37T relative to WT NL4-3; for IC50: L33S/I37T, TZM-bl cells, 48 h, luciferase, means, triplicate, repeated three times
Experimental: as §1, §2

[6] = tested on: HIV-1 NL4-3 gp41 NDQEEDYN/L33S/V38A/N42T pseudovirus; conditions: Table 3; for Fold change in IC50: NDQEEDYN/L33S/V38A/N42T relative to WT NL4-3; for IC50: NDQEEDYN/L33S/V38A/N42T, TZM-bl cells, 48 h, luciferase, means, triplicate, repeated three times
Experimental: as §1, §2

[7] = tested on: HIV-1 NL4-3 pseudovirus (WT); conditions: Table 3; for IC50: WT NL4-3, TZM-bl cells, 48 h, luciferase, means, triplicate, repeated three times; for Fold change in IC50: WT NL4-3 reference
Experimental: as §2

[8] = tested on: HIV-1 NL4-3 gp41 I69V pseudovirus; conditions: Table 3; for Fold change in IC50: I69V relative to WT NL4-3; for IC50: I69V, TZM-bl cells, 48 h, luciferase, means, triplicate, repeated three times
Experimental: (§3) Viral RNA was extracted from the supernatant, and, after reverse transcription, the cDNA was amplified using PCR. These amplified DNA were connected to the T-Easy vector and transformed to Trans 2-Blue Chemically Competent Cells. These sequences were determined via sequencing. The expression plasmids, which contained different HIV-1NL4-3 Env mutants, were constructed using DNA assembly (NEBuilder® HiFi DNA Assembly Master Mix). In brief, two primers were used to amplify Env, and the other two primers were used to amplify the vector fragment. The products of PCR were purified with a 20–25 bp overlap in the terminal of Env and the vector fragment Env and the vector fragment were added to the DNA assembly master mix at […] for 15 min and then transformed to Trans 2-Blue Chemically Competent Cells. Additionally, a single-point mutation was generated using double-stranded DNA templates and a selection of mutants with a restriction enzyme (DpnI) as described previously.
as §2

[9] = tested on: HIV-1 NL4-3 gp41 L33S pseudovirus; conditions: Table 3; for Fold change in IC50: L33S relative to WT NL4-3; for IC50: L33S, TZM-bl cells, 48 h, luciferase, means, triplicate, repeated three times
Experimental: as §3, §2

[10] = tested on: HIV-1 NL4-3 gp41 I37T pseudovirus; conditions: Table 3; for Fold change in IC50: I37T relative to WT NL4-3; for IC50: I37T, TZM-bl cells, 48 h, luciferase, means, triplicate, repeated three times
Experimental: as §3, §2

SMILES | IC50 [1] | Fold change in IC50 [1] | Fold change in IC50 [2] | IC50 [2] | Fold change in IC50 [3] | IC50 [3] | Fold change in IC50 [4] | IC50 [4] | Fold change in IC50 [5] | IC50 [5] | Fold change in IC50 [6] | IC50 [6] | IC50 [7] | Fold change in IC50 [7] | Fold change in IC50 [8] | IC50 [8] | Fold change in IC50 [9] | IC50 [9] | Fold change in IC50 [10] | IC50 [10]
CC[C@H](C)[C@H](NC(=O)[C@H](CCC(=O)O)NC(=O)[C@H](CCCNC(=N)N)NC(=O)[C@H](CCC(=O)O)NC(=O)[C@H](Cc1c[nH]c2ccccc12)NC(=O)[C@@H](NC(=O)[C@H](CCC(=O)O)NC(=O)[C@H](Cc1c[nH]c2ccccc12)NC(=O)[C@H](CO)NC(C)=O)[C@@H](C)O)C(=O)N[C@@H](CCC(=O)O)C(=O)N[C@@H](CC(N)=O)C(=O)N[C@@H](Cc1ccc(O)cc1)C(=O)N[C@H](C(=O)N[C@@H](CCCNC(=N)N)C(=O)N[C@@H](CCC(N)=O)C(=O)N[C@H](C(=O)N[C@@H](Cc1ccc(O)cc1)C(=O)N[C@@H](CCCNC(=N)N)C(=O)N[C@H](C(=O)N[C@@H](CC(C)C)C(=O)N[C@@H](CCC(=O)O)C(=O)N[C@@H](CCC(=O)O)C(=O)N[C@@H](CO)C(=O)N[C@@H](CCC(N)=O)C(=O)N[C@@H](CCC(=O)O)C(=O)N[C@@H](CCC(N)=O)C(=O)N[C@@H](CCC(N)=O)C(=O)N[C@@H](CC(=O)O)C(=O)N[C@@H](CCCNC(=N)N)C(=O)N[C@@H](CC(N)=O)C(=O)N[C@@H](CCC(=O)O)C(=O)N[C@@H](CCCNC(=N)N)C(=O)N[C@@H](CC(=O)O)C(=O)N[C@@H](CC(C)C)C(=O)N[C@@H](CC(C)C)C(=O)N[C@@H](CCC(=O)O)C(N)=O)[C@@H](C)CC)[C@@H](C)CC)[C@@H](C)O [SFT] (Ac-SWETWEREIENYTRQIYRILEESQEQQDRNERDLLE-NH2) | 0.00803 µM | 5.15 fold | 70.71 fold | 0.11 µM | 166.68 fold | 0.26 µM | 74.48 fold | 0.116 µM | 14.72 fold | 0.023 µM | 473.54 fold | 0.739 µM | 0.00156 µM | 1.00 fold | 1.07 fold | 0.00167 µM | 3.00 fold | 0.00467 µM | 7.21 fold | 0.0112 µM
CCCCCCCCCCCCCCCC(=O)NCCCC[C@H](NC(=O)[C@H](CC(C)C)NC(=O)[C@H](CC(C)C)NC(=O)[C@H](CCC(=O)O)NC(=O)[C@H](CCC(=O)O)NC(=O)[C@@H](NC(=O)[C@H](CCCCN)NC(=O)[C@H](CCCCN)NC(=O)[C@H](CCC(=O)O)NC(=O)[C@H](CC(C)C)NC(=O)[C@H](CCC(=O)O)NC(=O)[C@H](CCC(=O)O)NC(=O)[C@@H](NC(=O)[C@H](CCCCN)NC(=O)[C@H](CCCCN)NC(=O)[C@H](CCC(=O)O)NC(=O)[C@H](Cc1c[nH]c2ccccc12)NC(=O)[C@H](CCC(=O)O)NC(=O)[C@H](CCC(=O)O)NC(=O)[C@H](Cc1c[nH]c2ccccc12)NC(=O)[C@@H](NC(=O)[C@H](CCSC)NC(=O)[C@H](CCC(=O)O)NC(C)=O)[C@@H](C)O)C(C)C)[C@@H](C)CC)C(N)=O [LP-19] (Ac-EMTWEEWEKKVEELEKKIEELLK(Palmitoyl)-NH2) | – | 1.68 fold | 3.04 fold | – | 0.56 fold | – | 0.66 fold | – | 1.25 fold | – | 1.48 fold | – | – | 1.00 fold | 1.00 fold | – | 1.61 fold | – | 1.62 fold | –
CC[C@H](C)[C@H](NC(=O)[C@H](CCC(N)=O)NC(=O)[C@H](C)NC(=O)[C@H](CCC(N)=O)NC(=O)[C@H](CCC(=O)O)NC(=O)[C@H](CC(C)C)NC(=O)[C@H](CC(C)C)NC(=O)[C@H](C)NC(=O)[C@@H](NC(=O)[C@@H](NC(=O)[C@H](CCCCN)NC(=O)[C@H](CCC(N)=O)NC(=O)[C@H](CCC(=O)O)NC(=O)[C@H](Cc1c[nH]c2ccccc12)NC(=O)[C@H](CCC(=O)O)NC(=O)[C@H](CCC(N)=O)NC(=O)[C@H](Cc1c[nH]c2ccccc12)NC(C)=O)[C@@H](C)CC)[C@@H](C)O)C(=O)N[C@@H](CCC(N)=O)C(=O)N[C@@H](CCC(N)=O)C(=O)N[C@@H](CCC(=O)O)C(=O)N[C@@H](CCCCN)C(=O)N[C@@H](CC(N)=O)C(=O)N[C@@H](CCC(=O)O)C(=O)N[C@@H](Cc1ccc(O)cc1)C(=O)N[C@@H](CCC(=O)O)C(=O)N[C@@H](CC(C)C)C(=O)N[C@@H](CCC(N)=O)C(=O)N[C@@H](CCCCN)C(=O)N[C@@H](CC(C)C)C(=O)N[C@@H](CC(=O)O)C(=O)N[C@@H](CCCCN)C(=O)N[C@@H](Cc1c[nH]c2ccccc12)C(=O)N[C@@H](C)C(=O)N[C@@H](CO)C(=O)N[C@@H](CC(C)C)C(=O)N[C@@H](Cc1c[nH]c2ccccc12)C(=O)N[C@@H](CCC(=O)O)C(=O)N[C@@H](Cc1c[nH]c2ccccc12)C(=O)N[C@@H](Cc1ccccc1)C(N)=O [T1249] | 0.00107 µM | 0.94 fold | 145.54 fold | 0.166 µM | 227.04 fold | 0.259 µM | 23.77 fold | 0.0271 µM | – | 0.0815 µM | 301.12 fold | 0.343 µM | 0.00114 µM | 1.00 fold | 0.82 fold | 0.00093 µM | 11.41 fold | 0.013 µM | 1.21 fold | 0.00138 µM
